In brackets after ≈: the same amount, converted by molar mass. Read-outs that look alike come from different tables or passages of the source.
Experiments:
H. pylori [1] = assay: Antimicrobial activity test 2: time for sterilizing H. pylori (viable cell count in Brucella broth); type: cell-based, Helicobacter pylori
Experimental: A solution of the test compound was added to Brucella broth containing 5% fetal bovine serum, cultured under slightly aerobic conditions at 37° C., and the vial microbe cell number in Brucella agar containing 7% horse blood was counted at predetermined intervals. The above compound (1) was dissolved in a 1% aqueous solution of […] (DMSO), and the above compound (2) was dissolved in water to prepare a solution of each test compound. “cfu” in Tables and Figures means “colony forming unit”.

H. pylori [2] = assay: Antimicrobial activity test 1: anti-H. pylori activity of a single compound (agar plate method); type: cell-based, Helicobacter pylori; conditions: for MIC: Helicobacter pylori

## CN(C(=O)CN(CCO)CC(=O)N(C)C(C)(C)Cc1ccccc1)C(C)(C)Cc1ccccc1 [Oxethazaine, 2,2′-[(2-hydroxyethyl)amino]bis[N-(1,1-dimethyl-2-phenylethyl)-N-methylacetamide]]
H. pylori [1]; EH12, 1 MIC, 0 h
  Viable microbe cell number: 5.60 log10cfu/ml
H. pylori [1]; EH12, 1 MIC, 3 h
  Viable microbe cell number: 5.67 log10cfu/ml
H. pylori [1]; EH12, 1 MIC, 6 h
  Viable microbe cell number: 5.61 log10cfu/ml
H. pylori [1]; EH12, 1 MIC, 9 h
  Viable microbe cell number: 5.68 log10cfu/ml
H. pylori [1]; EH12, 1 MIC, 24 h
  Viable microbe cell number: 4.51 log10cfu/ml
H. pylori [1]; EH12, 2 MIC, 0 h
  Viable microbe cell number: 5.60 log10cfu/ml
H. pylori [1]; EH12, 2 MIC, 3 h
  Viable microbe cell number: 1.78 log10cfu/ml
H. pylori [1]; EH12, 2 MIC, 6 h
  Viable microbe cell number: 0 log10cfu/ml
H. pylori [1]; EH12, 2 MIC, 9 h
  Viable microbe cell number: 0 log10cfu/ml
H. pylori [1]; EH12, 2 MIC, 24 h
  Viable microbe cell number: 0 log10cfu/ml
H. pylori [1]; EH12, 4 MIC, 0 h
  Viable microbe cell number: 5.60 log10cfu/ml
H. pylori [1]; EH12, 4 MIC, 3 h
  Viable microbe cell number: 0 log10cfu/ml
H. pylori [1]; EH12, 4 MIC, 6 h
  Viable microbe cell number: 0 log10cfu/ml
H. pylori [1]; EH12, 4 MIC, 9 h
  Viable microbe cell number: 0 log10cfu/ml
H. pylori [1]; EH12, 4 MIC, 24 h
  Viable microbe cell number: 0 log10cfu/ml
H. pylori [1]; EH12, ½ MIC, 0 h
  Viable microbe cell number: 5.60 log10cfu/ml
H. pylori [1]; EH12, ½ MIC, 3 h
  Viable microbe cell number: 5.77 log10cfu/ml
H. pylori [1]; EH12, ½ MIC, 6 h
  Viable microbe cell number: 5.19 log10cfu/ml
H. pylori [1]; EH12, ½ MIC, 9 h
  Viable microbe cell number: 5.71 log10cfu/ml
H. pylori [1]; EH12, ½ MIC, 24 h
  Viable microbe cell number: 5.27 log10cfu/ml
H. pylori [1]; FIGS. 1 to 4, compared with the antibiotic
  sterilization curve: rapidly dropping sterilization curve
H. pylori [1]; NCTC 11637, 1 MIC, 0 h
  Viable microbe cell number: 5.70 log10cfu/ml
H. pylori [1]; NCTC 11637, 1 MIC, 3 h
  Viable microbe cell number: 5.24 log10cfu/ml
H. pylori [1]; NCTC 11637, 1 MIC, 6 h
  Viable microbe cell number: 4.98 log10cfu/ml
H. pylori [1]; NCTC 11637, 1 MIC, 9 h
  Viable microbe cell number: 4.64 log10cfu/ml
H. pylori [1]; NCTC 11637, 1 MIC, 24 h
  Viable microbe cell number: 4.30 log10cfu/ml
H. pylori [1]; NCTC 11637, 2 MIC, 0 h
  Viable microbe cell number: 5.70 log10cfu/ml
H. pylori [1]; NCTC 11637, 2 MIC, 3 h
  Viable microbe cell number: 1.90 log10cfu/ml
H. pylori [1]; NCTC 11637, 2 MIC, 6 h
  Viable microbe cell number: 0 log10cfu/ml
H. pylori [1]; NCTC 11637, 2 MIC, 9 h
  Viable microbe cell number: 0 log10cfu/ml
H. pylori [1]; NCTC 11637, 2 MIC, 24 h
  Viable microbe cell number: 0 log10cfu/ml
H. pylori [1]; NCTC 11637, 4 MIC, 0 h
  Viable microbe cell number: 5.70 log10cfu/ml
H. pylori [1]; NCTC 11637, 4 MIC, 3 h
  Viable microbe cell number: 0 log10cfu/ml
H. pylori [1]; NCTC 11637, 4 MIC, 6 h
  Viable microbe cell number: 0 log10cfu/ml
H. pylori [1]; NCTC 11637, 4 MIC, 9 h
  Viable microbe cell number: 0 log10cfu/ml
H. pylori [1]; NCTC 11637, 4 MIC, 24 h
  Viable microbe cell number: 0 log10cfu/ml
H. pylori [1]; NCTC 11637, ½ MIC, 0 h
  Viable microbe cell number: 5.70 log10cfu/ml
H. pylori [1]; NCTC 11637, ½ MIC, 3 h
  Viable microbe cell number: 5.48 log10cfu/ml
H. pylori [1]; NCTC 11637, ½ MIC, 6 h
  Viable microbe cell number: 5.27 log10cfu/ml
H. pylori [1]; NCTC 11637, ½ MIC, 9 h
  Viable microbe cell number: 5.11 log10cfu/ml
H. pylori [1]; NCTC 11637, ½ MIC, 24 h
  Viable microbe cell number: 5.51 log10cfu/ml
H. pylori [1]; NCTC 11916, 1 MIC, 0 h
  Viable microbe cell number: 5.72 log10cfu/ml
H. pylori [1]; NCTC 11916, 1 MIC, 3 h
  Viable microbe cell number: 6.04 log10cfu/ml
H. pylori [1]; NCTC 11916, 1 MIC, 6 h
  Viable microbe cell number: 5.92 log10cfu/ml
H. pylori [1]; NCTC 11916, 1 MIC, 9 h
  Viable microbe cell number: 5.84 log10cfu/ml
H. pylori [1]; NCTC 11916, 1 MIC, 24 h
  Viable microbe cell number: 4.67 log10cfu/ml
H. pylori [1]; NCTC 11916, 2 MIC, 0 h
  Viable microbe cell number: 5.77 log10cfu/ml
H. pylori [1]; NCTC 11916, 2 MIC, 3 h
  Viable microbe cell number: 3.63 log10cfu/ml
H. pylori [1]; NCTC 11916, 2 MIC, 6 h
  Viable microbe cell number: 2.83 log10cfu/ml
H. pylori [1]; NCTC 11916, 2 MIC, 9 h
  Viable microbe cell number: 2.61 log10cfu/ml
H. pylori [1]; NCTC 11916, 2 MIC, 24 h
  Viable microbe cell number: 0 log10cfu/ml
H. pylori [1]; NCTC 11916, 4 MIC, 0 h
  Viable microbe cell number: 5.77 log10cfu/ml
H. pylori [1]; NCTC 11916, 4 MIC, 3 h
  Viable microbe cell number: 0 log10cfu/ml
H. pylori [1]; NCTC 11916, 4 MIC, 6 h
  Viable microbe cell number: 0 log10cfu/ml
H. pylori [1]; NCTC 11916, 4 MIC, 9 h
  Viable microbe cell number: 0 log10cfu/ml
H. pylori [1]; NCTC 11916, 4 MIC, 24 h
  Viable microbe cell number: 0 log10cfu/ml
H. pylori [1]; NCTC 11916, ½ MIC, 0 h
  Viable microbe cell number: 5.77 log10cfu/ml
H. pylori [1]; NCTC 11916, ½ MIC, 3 h
  Viable microbe cell number: 5.70 log10cfu/ml
H. pylori [1]; NCTC 11916, ½ MIC, 6 h
  Viable microbe cell number: 6.35 log10cfu/ml
H. pylori [1]; NCTC 11916, ½ MIC, 9 h
  Viable microbe cell number: 6.32 log10cfu/ml
H. pylori [1]; NCTC 11916, ½ MIC, 24 h
  Viable microbe cell number: 6.44 log10cfu/ml
H. pylori [2]; NCTC11637, strain NCTC11637, read-out: MIC (growth inhibition)
  MIC: 25 µg/mL (≈ 53.5 µM)
H. pylori [2]; NCTC11639, strain NCTC11639, read-out: MIC (growth inhibition)
  MIC: 50 µg/mL (≈ 107 µM)
H. pylori [2]; NCTC11916, strain NCTC11916, read-out: MIC (growth inhibition)
  MIC: 25 µg/mL (≈ 53.5 µM)
H. pylori [2]; strain 89-355, read-out: MIC (growth inhibition)
  MIC: 12.5 µg/mL (≈ 26.7 µM)
H. pylori [2]; strain 89-357, read-out: MIC (growth inhibition)
  MIC: 25 µg/mL (≈ 53.5 µM)
H. pylori [2]; strain 89-360 (1), read-out: MIC (growth inhibition)
  MIC: 25 µg/mL (≈ 53.5 µM)
H. pylori [2]; strain 89-360, read-out: MIC (growth inhibition)
  MIC: 25 µg/mL (≈ 53.5 µM)
H. pylori [2]; strain 90-384, read-out: MIC (growth inhibition)
  MIC: 25 µg/mL (≈ 53.5 µM)
H. pylori [2]; strain 90-388 (1), read-out: MIC (growth inhibition)
  MIC: 25 µg/mL (≈ 53.5 µM)
H. pylori [2]; strain 90-388, read-out: MIC (growth inhibition)
  MIC: 25 µg/mL (≈ 53.5 µM)
H. pylori [2]; strain 90-390 (1), read-out: MIC (growth inhibition)
  MIC: 25 µg/mL (≈ 53.5 µM)
H. pylori [2]; strain 90-390, read-out: MIC (growth inhibition)
  MIC: 25 µg/mL (≈ 53.5 µM)
H. pylori [2]; strain 90-392, read-out: MIC (growth inhibition)
  MIC: 25 µg/mL (≈ 53.5 µM)
H. pylori [2]; strain 90-397 (first line, r19), read-out: MIC (growth inhibition)
  MIC: 25 µg/mL (≈ 53.5 µM)
H. pylori [2]; strain 90-397 (second line, r25), read-out: MIC (growth inhibition)
  MIC: 25 µg/mL (≈ 53.5 µM)
H. pylori [2]; strain 90-407 (1), read-out: MIC (growth inhibition)
  MIC: 25 µg/mL (≈ 53.5 µM)
H. pylori [2]; strain 90-407, read-out: MIC (growth inhibition)
  MIC: 25 µg/mL (≈ 53.5 µM)
H. pylori [2]; strain 90-411, read-out: MIC (growth inhibition)
  MIC: 25 µg/mL (≈ 53.5 µM)
H. pylori [2]; strain 90-414 (1), read-out: MIC (growth inhibition)
  MIC: 25 µg/mL (≈ 53.5 µM)
H. pylori [2]; strain 90-414, read-out: MIC (growth inhibition)
  MIC: 25 µg/mL (≈ 53.5 µM)
H. pylori [2]; strain 90-428, read-out: MIC (growth inhibition)
  MIC: 25 µg/mL (≈ 53.5 µM)
H. pylori [2]; strain EH12, read-out: MIC (growth inhibition)
  MIC: 25 µg/mL (≈ 53.5 µM)
H. pylori [2]; strain EH13, read-out: MIC (growth inhibition)
  MIC: 25 µg/mL (≈ 53.5 µM)
H. pylori [2]; strain EH16, read-out: MIC (growth inhibition)
  MIC: 25 µg/mL (≈ 53.5 µM)
H. pylori [2]; strain EH26, read-out: MIC (growth inhibition)
  MIC: 25 µg/mL (≈ 53.5 µM)
H. pylori [2]; summary of the strains of antimicrobial activity test 1, read-out: MIC for each strain
  MIC: ~25 µg/mL (≈ 53.5 µM)
H. pylori [2]; conclusion from test 1
  anti-H. pylori activity: excellent anti-H. pylori activity
